Reference: US8877707B2, “Inhibitors of HCV NS5A” (Presidio Pharmaceuticals, Inc., priority 2010, dated 2014)

system: HCV genotype 1b replicon in Huh 7 cells; experiment: HCV replicon assay (1b_Huh-Luc/Neo-ET cell line, luciferase readout); format: cell-based; conditions: Hepatitis C virus; Table 1; genotype 1b replicon, Huh 7 cells, 72 h, luciferase; read-out: Inhibition of HCV genotype 1b
Summary of the method: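 Replicon level was read as luciferase signal after 72 h compound exposure, triplicate wells, starting the day after cells were plated. Cell line: 1b_Huh-Luc/Neo-ET. Values normalised to control as percent, and EC50 fitted with a variable-slope sigmoid; determinations repeated.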

SMILES | EC50 [nM]
CNC(=O)N[C@@H](C(=O)N1CCC[C@H]1c1ncc(-c2ccc(-c3nc4ccc(-c5cnc([C@@H]6CCCN6C(=O)[C@@H](NC(=O)OC)C(C)C)[nH]5)cc4o3)cc2)[nH]1)c1ccccc1 [compound 256] | < 1
CCNC(=O)N[C@@H](C(=O)N1CCC[C@H]1c1ncc(-c2ccc(-c3nc4ccc(-c5cnc([C@@H]6CCCN6C(=O)[C@@H](NC(=O)OC)C(C)C)[nH]5)cc4o3)cc2)[nH]1)c1ccccc1 [compound 257] | < 1
COC(=O)N[C@H](C(=O)N1CCC[C@H]1c1ncc(-c2ccc(-c3ccc4nc(-c5cnc([C@@H]6CCCN6C(=O)[C@@H](NC(=O)OC)C(C)C)[nH]5)sc4c3)cc2)[nH]1)C(C)C [compound 258] | < 1
COC(=O)N[C@H](C(=O)N1CCC[C@H]1c1ncc(-c2ccc3oc(-c4ccc(-c5cnc([C@@H]6CCCN6C(=O)[C@@H](NC(=O)OC)C6CCOCC6)[nH]5)cc4)nc3c2)[nH]1)C(C)C [compound 259] | < 1
COC(=O)N[C@H](C(=O)N1CCC[C@H]1c1ncc(-c2ccc3oc(-c4ccc(-c5cnc([C@@H]6CCCN6C(=O)[C@H](NC(=O)OC)c6ccccc6)[nH]5)cc4)nc3c2)[nH]1)C(C)C [compound 260] | < 1
COC(=O)N[C@H](C(=O)N1CCC[C@H]1c1ncc(-c2ccc3ccc(C45CCC(c6cnc([C@@H]7CCCN7C(=O)[C@@H](NC(=O)OC)C(C)C)[nH]6)(CC4)CC5)cc3c2)[nH]1)C(C)C [compound 261] | 1 to 9.9
COC(=O)N[C@H](C(=O)N1CCC[C@H]1c1nc(-c2ccc3nc(C45CCC(c6cnc([C@@H]7CCCN7C(=O)[C@@H](NC(=O)OC)C(C)C)[nH]6)(CC4)CC5)ccc3c2)c[nH]1)C(C)C [compound 262] | < 1
COC(=O)N[C@@H](C(=O)N1CCC[C@H]1c1nc(-c2ccc3nc(C45CCC(c6cnc([C@@H]7CCCN7C(=O)[C@H](NC(=O)OC)c7ccccc7)[nH]6)(CC4)CC5)ccc3c2)c[nH]1)c1ccccc1 [compound 263] | < 1
CN(C)[C@@H](C(=O)N1CCC[C@H]1c1nc(-c2ccc3nc(C45CCC(c6cnc([C@@H]7CCCN7C(=O)[C@@H](c7ccccc7)N(C)C)[nH]6)(CC4)CC5)ccc3c2)c[nH]1)c1ccccc1 [compound 264] | 1 to 9.9
COC(=O)N[C@H](C(=O)N1CCC[C@H]1c1nc(-c2ccc3nc(C45CCC(c6cnc([C@@H]7CCCN7C(=O)[C@@H](NC(=O)OC)C7CC7)[nH]6)(CC4)CC5)ccc3c2)c[nH]1)C1CC1 [compound 265] | < 1
COC(=O)N[C@@H](C)C(=O)N1CCC[C@H]1c1nc(-c2ccc3nc(C45CCC(c6cnc([C@@H]7CCCN7C(=O)[C@H](C)NC(=O)OC)[nH]6)(CC4)CC5)ccc3c2)c[nH]1 [compound 266] | < 1
c1cc2nc(C34CCC(c5cnc([C@@H]6CCCN6)[nH]5)(CC3)CC4)ccc2cc1-c1c[nH]c([C@@H]2CCCN2)n1 [compound 267] | > 1000
CC(C)(C)OC(=O)N1CCCC1c1ncc(C23CCC(c4ccc5cc(-c6c[nH]c([C@@H]7CCCN7C(=O)OC(C)(C)C)n6)ccc5n4)(CC2)CC3)[nH]1 (stereo partly shown) [compound 268] | 10 to 999
COC(=O)N[C@H](C(=O)N1CCC[C@H]1c1nc(-c2ccc3c(c2)CCN(c2c(F)cc(-c4cnc([C@@H]5CCCN5C(=O)[C@@H](NC(=O)OC)C(C)C)[nH]4)cc2F)C3)c[nH]1)C(C)C [compound 269] | < 1
COC(=O)N[C@@H](C(=O)N1CCC[C@H]1c1nc(-c2ccc3c(c2)CCN(c2c(F)cc(-c4cnc([C@@H]5CCCN5C(=O)[C@H](NC(=O)OC)c5ccccc5)[nH]4)cc2F)C3)c[nH]1)c1ccccc1 [compound 270] | < 1
COC(=O)N[C@H](C(=O)N1CCC[C@H]1c1nc(-c2ccc3c(c2)CCN(c2c(F)cc(-c4cnc([C@@H]5CCCN5C(=O)[C@@H](NC(=O)OC)C5CC5)[nH]4)cc2F)C3)c[nH]1)C1CC1 [compound 271] | < 1

SMILES | EC50 [nM]
COC(=O)N[C@@H](C)C(=O)N1CCC[C@H]1c1nc(-c2ccc3c(c2)CCN(c2c(F)cc(-c4cnc([C@@H]5CCCN5C(=O)[C@H](C)NC(=O)OC)[nH]4)cc2F)C3)c[nH]1 [compound 272] | < 1
COC(=O)N[C@@H](C)C(=O)N1CCC[C@H]1c1nc(-c2ccc3nc(N4CCC(c5cnc([C@@H]6CCCN6C(=O)[C@H](C)NC(=O)OC)[nH]5)CC4)ccc3c2)c[nH]1 [compound 273] | 1 to 9.9
COC(=O)N[C@H](C(=O)N1CCC[C@H]1c1nc(-c2ccc3nc(N4CCC(c5cnc([C@@H]6CCCN6C(=O)[C@@H](NC(=O)OC)C6CC6)[nH]5)CC4)ccc3c2)c[nH]1)C1CC1 [compound 274] | 1 to 9.9
COC(=O)N[C@H](C(=O)N1CCC[C@H]1c1nc(-c2ccc3nc(N4CCC(c5cnc([C@@H]6CCCN6C(=O)[C@@H](NC(=O)OC)C(C)C)[nH]5)CC4)ccc3c2)c[nH]1)C(C)C [compound 275] | < 1
COC(=O)N[C@H](C(=O)N1CCC[C@H]1c1nc2ccc(-c3ccc4cc(-c5ccc6nc([C@@H]7CCCN7C(=O)[C@@H](NC(=O)OC)C(C)C)[nH]c6c5)ccc4c3)cc2[nH]1)C(C)C [compound 276] | < 1
COC(=O)N[C@H](C(=O)N1CCC[C@H]1c1nc2ccc(-c3cccc4c(-c5ccc6nc([C@@H]7CCCN7C(=O)[C@@H](NC(=O)OC)C(C)C)[nH]c6c5)cccc34)cc2[nH]1)C(C)C [compound 277] | < 1
COC(=O)N[C@@H](C)C(=O)N1CCC[C@H]1c1nc2ccc(-c3ccc4cc(-c5ccc6nc([C@@H]7CCCN7C(=O)[C@H](C)NC(=O)OC)[nH]c6c5)ccc4c3)cc2[nH]1 [compound 278] | < 1
COC(=O)N[C@H](C(=O)N1CCC[C@H]1c1nc2ccc(-c3ccc4cc(-c5ccc6nc([C@@H]7CCCN7C(=O)[C@@H](NC(=O)OC)C7CCOCC7)[nH]c6c5)ccc4c3)cc2[nH]1)C1CCOCC1 [compound 279] | < 1
COC(=O)N[C@H](C(=O)N1CCC[C@H]1c1nc2ccc(-c3ccc4nc(-c5ccc6nc([C@@H]7CCCN7C(=O)[C@@H](NC(=O)OC)C(C)C)[nH]c6c5)ccc4c3)cc2[nH]1)C(C)C [compound 280] | < 1
COC(=O)N[C@H](C(=O)N1CCC[C@H]1c1nc2ccc(-c3ccc4cc(-c5ccc6nc([C@@H]7CCCN7C(=O)[C@@H](NC(=O)OC)C(C)C)[nH]c6c5)ncc4c3)cc2[nH]1)C(C)C [compound 281] | < 1
COC(=O)N[C@H](C(=O)N1CCC[C@H]1c1nc2ccc(-c3ccc4cc(-c5ccc6nc([C@@H]7CCCN7C(=O)[C@@H](NC(=O)OC)C7CCOCC7)[nH]c6c5)ccc4c3)cc2[nH]1)C(C)C [compound 282] | < 1
COC(=O)N[C@H](C(=O)N1CCC[C@H]1c1nc2ccc(-c3ccc4cc(-c5ccc6nc([C@@H]7CCCN7C(=O)[C@H](NC(=O)OC)c7ccccc7)[nH]c6c5)ccc4c3)cc2[nH]1)C(C)C [compound 283] | < 1
COC(=O)N[C@H](C(=O)N1CCC[C@H]1c1nc2ccc(-c3ccc4cc(-c5ccc6nc([C@@H]7CCCN7C(=O)[C@@H](NC(=O)OC)C7CCOCC7)[nH]c6n5)ccc4c3)nc2[nH]1)C1CCOCC1 [compound 284] | 1 to 9.9
COC(=O)N[C@@H](C(=O)N1CCC[C@H]1c1nc(-c2ccc3nc(C4CCC(c5cnc([C@@H]6CCCN6C(=O)[C@H](NC(=O)OC)c6ccccc6)[nH]5)CC4)ccc3c2)c[nH]1)c1ccccc1 (stereo partly shown) [compound 286] | < 1
COC(=O)N[C@H](C(=O)N1CCC[C@H]1c1nc(-c2ccc3c(=O)n(-c4ccc(-c5cnc([C@@H]6CCCN6C(=O)[C@@H](NC(=O)OC)C(C)C)[nH]5)cc4)ccc3c2)c[nH]1)C(C)C [compound 287] | < 1
